# In patent US20230398125A1, “TREATING HEPATITIS” (Albireo AB, priority 2022, published 2023):
# Like-named read-outs stand apart in the source and are kept apart here. Marks after values point to notes of the source that are not given here.
# Legend:
# HBV genotype C = experiment: Serum HBV DNA in HBV-infected PXB mice; type: in vivo, hepatitis B virus; conditions: for serum HBV DNA levels: HBV-infected PXB mice, group mean, assay limit 4×10^4 copies/mL serum
# Procedure: Target volume of blood was collected from all surviving animals under isoflurane anesthesia via the retro-orbital plexus/sinus using Intramedic™ Polyethylene Tubing at each time point. Two microliters (2 μL) from the collected blood were used for human albumin measurements. The remaining blood was centrifuged to separate serum to be used for analyzing the indicated biomarkers. Blood samples were collected according to Table 8.
# The individual blood samples of the animals were left at room temperature for at least 5 minutes to coagulate and then centrifuged at 13200×g, 4° C. for 3 minutes to obtain serum. The serum was divided into separate labeled microtubes and stored at −80° C. until analysis.
# Real-time PCR detection was used to measure the serum HBV DNA concentration using the KUBIX HBV qPCR Kit (KUBIX Inc.) and CFX96 Touch™ Real-Time PCR Detection System (Bio-Rad Laboratories, Inc., Hercules, Calif., USA). Ten microliters (10 μL) of the HBV 2×PCR Solution were added into 10 μL of the heated sample. The initial activation was conducted at 95° C. for 2 minutes. Subsequent PCR amplification consisted of 45 cycles of denaturation at 95° C. for 5 seconds and annealing and extension at 54° C. for 30 seconds per cycle in a CFX96 Touch™ Real-Time PCR Detection System. The average serum HBV DNA level was calculated from the values of the two separate wells.
# The lowest quantification limit of this assay was 4×10^4 copies/mL serum.
# Human NTCP = target: T1, Human NTCP (Homo sapiens, UniProt Q14973); experiment: [3H]taurocholate uptake in hNTCP-transfected CHO cells, apparent Ki and type of inhibition; type: cell-based
# T1 construct: expressed in transfected cells; peptide purchased from Pharmaron
# T1 sequence (Q14973 1-349): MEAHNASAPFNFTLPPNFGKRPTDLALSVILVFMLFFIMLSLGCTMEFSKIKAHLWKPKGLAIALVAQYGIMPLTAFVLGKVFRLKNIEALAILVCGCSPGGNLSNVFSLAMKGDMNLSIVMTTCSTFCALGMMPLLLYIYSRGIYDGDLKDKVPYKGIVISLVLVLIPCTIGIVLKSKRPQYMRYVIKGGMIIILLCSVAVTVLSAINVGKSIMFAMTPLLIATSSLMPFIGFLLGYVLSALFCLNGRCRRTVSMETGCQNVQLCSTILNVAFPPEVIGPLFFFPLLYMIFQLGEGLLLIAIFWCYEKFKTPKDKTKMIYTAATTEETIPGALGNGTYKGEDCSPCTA
# Procedure: Stably hNTCP-transfected CHO cells were seeded onto 24 well plates. After overnight incubation, CHO cells were treated with 10 mM sodium butyrate to induce NTCP transporter expression. Twenty-four hours later, media was aspirated, cells were washed with warm Hanks balanced salt solution (HBSS) containing sodium (+Na). Cells were incubated with increasing doses of Compound 1 (for example: 0, 10 nM, 100 nM, 1 μM, 10 μM), in the presence of tracer doses of 5 μm, 10 μM, or 25 μM [^3H]taurocholate at 37° C. for <10 minutes. The cells were processed for radioactivity. The apparent Ki and kinetic types of inhibition (competitive, uncompetitive, non-competitive, mixed) were determined by complementary Dixon/Cornish-Bowden plot analysis and Lineweaver-Burk plot analysis.
# [1] = test system: HBV (HepG2 AD38 genotype D); experiment: HBV infection of primary human hepatocytes, extracellular HBV DNA by qPCR; type: cell-based, hepatitis B virus; conditions: for EC50: Hepatitis B virus
structure (smiles),measurement,setting,value
"CCCCC1CN(c2ccccc2)c2cc(SC)c(O/C=C(\F)C(=O)O)cc2S(=O)(=O)N1C (stereo not shown) [Compound 1, (Z)-3-((3-butyl-2-methyl-7-(methylthio)-1,1-dioxido-5-phenyl-2,3,4,5-tetrahydro-1,2,5-benzothiadiazepin-8-yl)oxy)-2-fluoroacrylic acid]",serum HBV DNA compared to controls,"HBV genotype C; 30 mg/kg, Day 7",lower
same,serum HBV DNA levels,"HBV genotype C; 10 mg/kg p.o. once daily Day 0-14, Day 0 (pre-dose)",4.0 × 10^4
same,serum HBV DNA levels,"HBV genotype C; 10 mg/kg p.o. once daily Day 0-14, Day 7",1.4 × 10^5
same,serum HBV DNA levels,"HBV genotype C; 10 mg/kg p.o. once daily Day 0-14, Day 14",8.5 × 10^5
same,serum HBV DNA levels,"HBV genotype C; 10 mg/kg p.o. once daily Day 0-14, Day 21",1.3 × 10^6
same,serum HBV DNA levels,"HBV genotype C; 10 mg/kg p.o. once daily Day 0-14, Day 28",8.5 × 10^6
same,serum HBV DNA levels,"HBV genotype C; 10 mg/kg p.o. once daily Day 0-14, Day 35",2.7 × 10^7*
same,serum HBV DNA levels,"HBV genotype C; 10 mg/kg p.o. once daily Day 0-14, Day 42",1.2 × 10^8*
same,serum HBV DNA levels,"HBV genotype C; 30 mg/kg p.o. once daily Day 0-14, Day 0 (pre-dose)",4.0 × 10^4
same,serum HBV DNA levels,"HBV genotype C; 30 mg/kg p.o. once daily Day 0-14, Day 7",6.1 × 10^4
same,serum HBV DNA levels,"HBV genotype C; 30 mg/kg p.o. once daily Day 0-14, Day 14",1.9 × 10^5
same,serum HBV DNA levels,"HBV genotype C; 30 mg/kg p.o. once daily Day 0-14, Day 21",3.1 × 10^5
same,serum HBV DNA levels,"HBV genotype C; 30 mg/kg p.o. once daily Day 0-14, Day 28",2.7 × 10^6
same,serum HBV DNA levels,"HBV genotype C; 30 mg/kg p.o. once daily Day 0-14, Day 35",1.1 × 10^7
same,serum HBV DNA levels,"HBV genotype C; 30 mg/kg p.o. once daily Day 0-14, Day 42",5.4 × 10^7
same,effect against HBV genotype C infection in PXB-mice,HBV genotype C; oral dosing before HBV infection,prophylactic effects
same,kinetic type of inhibition of transporter activity,"Human NTCP; Dixon/Cornish-Bowden and Lineweaver-Burk analysis, NTCP and ASBT",competitive inhibitor
same,Ki,"Human NTCP; [3H]taurocholate, CHO cells, read-out: inhibitory constant (Ki) for human NTCP",15 nM
same,EC50,"[1]; HepG2, 18 h, Study #01, compound given 18 h post-infection",> 1 nM
same,EC50,"[1]; HepG2, Study #01, #02 and #03 merged, four parameter regression, read-out: EC50 from fitted curve of merged data",4.9 nM
same,EC50,"[1]; HepG2, Study #01, compound given 18 h prior to infection, PHH, HBV DNA, read-out: EC50",4 nM
same,EC50,"[1]; HepG2, Study #02, PHH, read-out: EC50",< 6.3 nM
same,EC50,"[1]; HepG2, Study #03, PHH, read-out: EC50",11 nM
same,antiviral activity/potency when given 18 h post-infection,[1]; Study #01,lost
same,Max inhibition,"[1]; Study #01, 18 h prior to infection",97%
same,Max inhibition,[1]; Study #02,88%
same,inhibition at the lowest concentration tested,"[1]; Study #02, 6.25 nmol/L",58%
same,Max inhibition,[1]; Study #03,63%
